Data published in the supplement of paper PMC10307832.

Key:
Experiment in all cases: relative viability (nuclei count vs DMSO), 5 days (fraction); higher = more cells survive
[1] = compound: c1ccc2c(CCNc3ccc(Nc4ccncc4)cc3)c[nH]c2c1 [Serdemetan] + CS(=O)(=O)CCNCc1ccc(-c2ccc3ncnc(Nc4ccc(OCc5cccc(F)c5)c(Cl)c4)c3c2)o1 [Lapatinib] (partner 2 µM)
Procedure, shortened: (§1)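 Lung cancer cell lines in 1536-well plates got either a single drug or a fixed anchor-drug dose together with five library-drug doses (not always all listed) in √10 steps, by pin tool, on the day after seeding. Nuclei were counted after 5 days, and relative viability is the treated-to-vehicle ratio of nuclei counts. Values are medians of duplicate plates.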

[2] = compound: C1CC(C2=C(C1)C3=C(N2)C=CC(=C3)Cl)C(=O)N [Selisistat] + CS(=O)(=O)N1CCN(Cc2cc3nc(-c4cccc5[nH]ncc45)nc(N4CCOCC4)c3s2)CC1 [Pictilisib] (partner 1 µM)
Procedure, shortened: as §1

[3] = compound: C1CC(C2=C(C1)C3=C(N2)C=CC(=C3)Cl)C(=O)N [Selisistat] + CS(=O)(=O)CCNCc1ccc(-c2ccc3ncnc(Nc4ccc(OCc5cccc(F)c5)c(Cl)c4)c3c2)o1 [Lapatinib] (partner 2 µM)
Procedure, shortened: as §1

[4] = compound: c1ccc2c(CCNc3ccc(Nc4ccncc4)cc3)c[nH]c2c1 [Serdemetan] + Cc1nc(NC(=O)N2CCC[C@H]2C(N)=O)sc1-c1ccnc(C(C)(C)C(F)(F)F)c1 [Alpelisib] (partner 2 µM)
Procedure, shortened: as §1

Cell Line	relative viability ([1]; first compound 0.04 µM)	relative viability ([1]; first compound 0.1265 µM)	relative viability ([1]; first compound 0.4 µM)	relative viability ([1]; first compound 1.265 µM)	relative viability ([1]; first compound 4 µM)	relative viability ([2]; first compound 0.4 µM)	relative viability ([2]; first compound 1.265 µM)	relative viability ([2]; first compound 12.65 µM)	relative viability ([2]; first compound 40 µM)	relative viability ([3]; first compound 0.4 µM)	relative viability ([3]; first compound 1.265 µM)	relative viability ([3]; first compound 12.65 µM)	relative viability ([3]; first compound 40 µM)	relative viability ([4]; first compound 0.04 µM)	relative viability ([4]; first compound 0.1265 µM)	relative viability ([4]; first compound 0.4 µM)	relative viability ([4]; first compound 1.265 µM)	relative viability ([4]; first compound 4 µM)	relative viability ([2]; first compound 4 µM)	relative viability ([3]; first compound 4 µM)
NCI-H1793	0.644	0.679	0.637	0.38	0.625	0.311	0.275	0.287	0.516	0.793	0.636	0.816	0.816	0.704	0.738	0.754	0.53	0.347		
NCI-H1734	0.855		0.833	0.0959	0.195	0.479	0.488	0.486	0.445	1.03	1.04	1.02	1.16	0.61		0.259	0.122	0.178	0.404	1.17
LXF-289	0.857	0.885	0.851	0.827	0.759	0.845	0.812	0.747	0.85	0.913	0.949	0.864	0.921	1.02	1.01	0.937	0.844	0.844	0.633	0.926
H3255	0.222	0.229	0.258	0.251	0.186	0.508	0.41	0.494	0.532	0.225	0.263	0.245	0.271	0.657	0.693	0.585	0.683	0.525	0.481	0.123
201T	0.976	0.943	1.04	0.937	0.94	0.69	0.648	0.673	0.685	1.11	1.02	1.03	1.08	0.965	0.995	1.01	0.939	0.883	0.58	1.02
NCI-H2126	0.736	0.724	0.78	0.645	0.844	0.525	0.496	0.526	0.584	0.828	0.775	0.794	0.856	0.721	0.753	0.741	0.575	0.762	0.398	0.623
